Test results: the NIST ThermoML archive (doi:10.1016/j.fluid.2017.09.014)

Assay: xn = mol fraction of the nth substance listed
Conditions: Vibrating tube method

O=S=O [sulfur dioxide] + O=C=O
Conditions	mass density [kg/m3]
283.32 K, 5506 kPa, Liquid, x2 = 0.9503	916.4
283.32 K, 6002 kPa, Liquid, x2 = 0.9503	920.8
283.32 K, 6507 kPa, Liquid, x2 = 0.9503	925.6
283.32 K, 7000 kPa, Liquid, x2 = 0.9503	929.5
283.32 K, 7506 kPa, Liquid, x2 = 0.9503	934.7
283.32 K, 8008 kPa, Liquid, x2 = 0.9503	938.7
283.32 K, 9510 kPa, Liquid, x2 = 0.9503	949.7
283.32 K, 9995 kPa, Liquid, x2 = 0.9503	953.3
283.32 K, 10507 kPa, Liquid, x2 = 0.9503	956.6
283.32 K, 11007 kPa, Liquid, x2 = 0.9503	959.9
283.32 K, 12009 kPa, Liquid, x2 = 0.9503	966.2
283.32 K, 12514 kPa, Liquid, x2 = 0.9503	969.7
283.32 K, 13000 kPa, Liquid, x2 = 0.9503	972.6
283.32 K, 13536 kPa, Liquid, x2 = 0.9503	975.3
283.32 K, 14496 kPa, Liquid, x2 = 0.9503	980.8
283.32 K, 15011 kPa, Liquid, x2 = 0.9503	984.1
283.32 K, 15505 kPa, Liquid, x2 = 0.9503	986.8
283.32 K, 16044 kPa, Liquid, x2 = 0.9503	989.5
283.32 K, 16561 kPa, Liquid, x2 = 0.9503	992.4
283.32 K, 17047 kPa, Liquid, x2 = 0.9503	994.7
283.32 K, 17551 kPa, Liquid, x2 = 0.9503	996.8
283.32 K, 18520 kPa, Liquid, x2 = 0.9503	1001.7
283.32 K, 19016 kPa, Liquid, x2 = 0.9503	1004.1
283.32 K, 19496 kPa, Liquid, x2 = 0.9503	1006.2
283.32 K, 20038 kPa, Liquid, x2 = 0.9503	1008.7
283.32 K, 20507 kPa, Liquid, x2 = 0.9503	1011
283.32 K, 21035 kPa, Liquid, x2 = 0.9503	1013.2
283.32 K, 21504 kPa, Liquid, x2 = 0.9503	1015.3
283.32 K, 22046 kPa, Liquid, x2 = 0.9503	1017.6
283.32 K, 22565 kPa, Liquid, x2 = 0.9503	1019.8
283.32 K, 23052 kPa, Liquid, x2 = 0.9503	1021.8
283.32 K, 23509 kPa, Liquid, x2 = 0.9503	1023.3
283.32 K, 24535 kPa, Liquid, x2 = 0.9503	1027.4
283.32 K, 25025 kPa, Liquid, x2 = 0.9503	1029.4
283.32 K, 25509 kPa, Liquid, x2 = 0.9503	1031.3
283.32 K, 26038 kPa, Liquid, x2 = 0.9503	1033.5
283.32 K, 26503 kPa, Liquid, x2 = 0.9503	1034.9
283.32 K, 27023 kPa, Liquid, x2 = 0.9503	1037
283.32 K, 28043 kPa, Liquid, x2 = 0.9503	1040.7
283.32 K, 28527 kPa, Liquid, x2 = 0.9503	1042.4
283.32 K, 29081 kPa, Liquid, x2 = 0.9503	1044.1
283.32 K, 29470 kPa, Liquid, x2 = 0.9503	1045.7
283.32 K, 30008 kPa, Liquid, x2 = 0.9503	1047.3
283.32 K, 30506 kPa, Liquid, x2 = 0.9503	1049.6
283.32 K, 31007 kPa, Liquid, x2 = 0.9503	1050.9
283.32 K, 31500 kPa, Liquid, x2 = 0.9503	1052.8
283.32 K, 32033 kPa, Liquid, x2 = 0.9503	1054.6
283.32 K, 32516 kPa, Liquid, x2 = 0.9503	1056.2
283.32 K, 33032 kPa, Liquid, x2 = 0.9503	1057.9
283.32 K, 33527 kPa, Liquid, x2 = 0.9503	1059.6
283.32 K, 33995 kPa, Liquid, x2 = 0.9503	1060.8
283.32 K, 34989 kPa, Liquid, x2 = 0.9503	1064.3
283.32 K, 37026 kPa, Liquid, x2 = 0.9503	1070.5
283.32 K, 38461 kPa, Liquid, x2 = 0.9503	1074.6
283.32 K, 39056 kPa, Liquid, x2 = 0.9503	1076.1
283.32 K, 39558 kPa, Liquid, x2 = 0.9503	1077.4
283.32 K, 40729 kPa, Liquid, x2 = 0.9503	1080.4
283.33 K, 4307 kPa, Liquid, x2 = 0.9503	902.3
283.33 K, 4499 kPa, Liquid, x2 = 0.9503	904.4
283.33 K, 8543 kPa, Liquid, x2 = 0.9503	942.8
283.33 K, 9019 kPa, Liquid, x2 = 0.9503	946.2
283.33 K, 11512 kPa, Liquid, x2 = 0.9503	963
283.33 K, 14003 kPa, Liquid, x2 = 0.9503	978.2
283.33 K, 18078 kPa, Liquid, x2 = 0.9503	999.5
283.33 K, 24074 kPa, Liquid, x2 = 0.9503	1025.3
283.33 K, 40145 kPa, Liquid, x2 = 0.9503	1078.8
283.33 K, 40601 kPa, Liquid, x2 = 0.9503	1080.3
283.33 K, 40700 kPa, Liquid, x2 = 0.9503	1080.6
297.4 K, 4803 kPa, Gas, x2 = 0.9478	134.4
297.41 K, 100 kPa, Gas, x2 = 0.9478	1.8
297.41 K, 200 kPa, Gas, x2 = 0.9478	3.6
297.41 K, 2012 kPa, Gas, x2 = 0.9478	42.1
297.41 K, 2215 kPa, Gas, x2 = 0.9478	47.2
297.42 K, 51 kPa, Gas, x2 = 0.9478	1
297.42 K, 397 kPa, Gas, x2 = 0.9478	7.5
297.42 K, 502 kPa, Gas, x2 = 0.9478	9.4
297.42 K, 1817 kPa, Gas, x2 = 0.9478	37.6
297.42 K, 2421 kPa, Gas, x2 = 0.9478	53
297.42 K, 2588 kPa, Gas, x2 = 0.9478	57
297.42 K, 2854 kPa, Gas, x2 = 0.9478	64.1
297.42 K, 3638 kPa, Gas, x2 = 0.9478	87.4
297.42 K, 3822 kPa, Gas, x2 = 0.9478	93.7
297.42 K, 3996 kPa, Gas, x2 = 0.9478	99.9
297.42 K, 4401 kPa, Gas, x2 = 0.9478	115.6
297.42 K, 4507 kPa, Gas, x2 = 0.9478	120.1
297.42 K, 4600 kPa, Gas, x2 = 0.9478	124.4
297.42 K, 4703 kPa, Gas, x2 = 0.9478	129.2
297.43 K, 3223 kPa, Gas, x2 = 0.9478	74.6
297.43 K, 3396 kPa, Gas, x2 = 0.9478	79.8
297.43 K, 4206 kPa, Gas, x2 = 0.9478	107.7
297.44 K, 3064 kPa, Gas, x2 = 0.9478	70.1
298.09 K, 26076 kPa, Liquid, x2 = 0.9478	980
298.09 K, 26503 kPa, Liquid, x2 = 0.9478	982.1
298.1 K, 7001 kPa, Liquid, x2 = 0.9478	819.7
298.1 K, 9007 kPa, Liquid, x2 = 0.9478	854
298.1 K, 21016 kPa, Liquid, x2 = 0.9478	954.5
298.1 K, 21994 kPa, Liquid, x2 = 0.9478	959.8
298.1 K, 22537 kPa, Liquid, x2 = 0.9478	962.6
298.1 K, 23522 kPa, Liquid, x2 = 0.9478	967.7
298.1 K, 24029 kPa, Liquid, x2 = 0.9478	970.2
298.1 K, 24505 kPa, Liquid, x2 = 0.9478	972.6
298.1 K, 25050 kPa, Liquid, x2 = 0.9478	975.1
298.1 K, 25593 kPa, Liquid, x2 = 0.9478	977.9
298.1 K, 27025 kPa, Liquid, x2 = 0.9478	984.3
298.1 K, 27508 kPa, Liquid, x2 = 0.9478	986.6
298.1 K, 27973 kPa, Liquid, x2 = 0.9478	988.6
298.1 K, 28400 kPa, Liquid, x2 = 0.9478	990.6
298.1 K, 32016 kPa, Liquid, x2 = 0.9478	1004.6
298.1 K, 32518 kPa, Liquid, x2 = 0.9478	1006.5
298.1 K, 33068 kPa, Liquid, x2 = 0.9478	1008.6
298.1 K, 33435 kPa, Liquid, x2 = 0.9478	1009.8
